In patent US9695155B2, “Herbicidal substituted pyrimidinyloxy benzene compounds” (E. I. DU PONT DE NEMOURS AND COMPANY, priority 2013, dated 2017):

Columns and labels:
galium = test: Test C postemergence; format: in vivo, Galium aparine; conditions: Galium, post-emergence
Method in brief: (§1)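 Sown in loam/sand → sprayed pre-emergence; or grown to 1–4 leaves in peat mix → sprayed post-emergence. Same solvent/surfactant formulation both ways. Greenhouse 13–15 d. Score 0–100 visual.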

barnyardgrass [1] = test: Test C postemergence; format: in vivo, Echinochloa crus-galli; conditions: Echinochloa crus-galli, post-emergence
Method in brief: as §1

ragweed = test: Test C postemergence; format: in vivo, Ambrosia elatior; conditions: Ambrosia artemisiifolia, post-emergence
Method in brief: as §1

corn [2] = test: Test A postemergence; format: in vivo, Zea mays; conditions: Zea mays, post-emergence, 240 h
Method in brief: (§2)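 Scoring: eye-based comparison with untreated controls, 0 for no effect through 100 for complete control, at about day 10. Treatments: directed soil spray preemergence; foliar spray postemergence on 2–10 cm plants at the one- to two-leaf stage. Medium: loam soil with sand.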

wheat, winter [3] = test: Test C postemergence; format: in vivo, Triticum aestivum; conditions: Triticum aestivum, post-emergence
Method in brief: as §1

wild oat = test: Test C postemergence; format: in vivo, Avena fatua; conditions: Avena fatua, post-emergence
Method in brief: as §1

velvetleaf = test: Test C preemergence; format: in vivo, Abutilon theophrasti; conditions: Abutilon theophrasti, pre-emergence
Method in brief: as §1

morningglory = test: Test C preemergence; format: in vivo, Ipomoea coccinea; conditions: Ipomoea, pre-emergence
Method in brief: as §1

Italian ryegrass = test: Test C preemergence; format: in vivo, Lolium multiflorum; conditions: Lolium multiflorum, pre-emergence
Method in brief: as §1

barnyardgrass [4] = test: Test A postemergence; format: in vivo, Echinochloa crus-galli; conditions: Echinochloa crus-galli, post-emergence, 240 h
Method in brief: as §2

yellow nutsedge = test: Test C postemergence; format: in vivo, Cyperus esculentus; conditions: Cyperus, post-emergence
Method in brief: as §1

soybean = test: Test C preemergence; format: in vivo, Glycine max; conditions: Glycine max, pre-emergence
Method in brief: as §1

corn [5] = test: Test A preemergence; format: in vivo, Zea mays; conditions: Zea mays, pre-emergence, 240 h
Method in brief: as §2

wheat, winter [6] = test: Test C preemergence; format: in vivo, Triticum aestivum; conditions: Triticum aestivum, pre-emergence
Method in brief: as §1

waterhemp = test: Test C postemergence; format: in vivo, Amaranthus rudis; conditions: Amaranthus tuberculatus, post-emergence
Method in brief: as §1

[7] = 125 g ai/ha, 0 to 100 scale where 0 is no effect and 100 is complete control

N#Cc1cccc(Oc2ncc(Cl)cn2)c1-n1cc(Br)cn1 [Compound 52, 2-(4-bromo-1H-pyrazol-1-yl)-3-[(5-chloro-2-pyrimidinyl)oxy]benzonitrile]
pest or weed control at 125 g/ha (galium; 125 g ai/ha, postemergence, read-out: Plant response rating (0 to 100), Galium): 85% | pest or weed control at 250 g/ha (galium; 250 g ai/ha, postemergence, read-out: Plant response rating (0 to 100), Galium): 90% | pest or weed control at 31 g/ha (galium; Postemergence, 31 g ai/ha, scale 0 to 100 (0 no effect, 100 complete control), 13 to 15 days, read-out: Plant response rating, Galium): 60% | pest or weed control at 62 g/ha (galium; Postemergence, 62 g ai/ha, scale 0 to 100 (0 no effect, 100 complete control), read-out: Plant response rating, Galium): 60% | pest or weed control at 125 g/ha (barnyardgrass [1]; 125 g ai/ha, postemergence, read-out: Plant response rating (0 to 100), Barnyardgrass): 5% | pest or weed control at 250 g/ha (barnyardgrass [1]; 250 g ai/ha, postemergence, read-out: Plant response rating (0 to 100), Barnyardgrass): 10% | pest or weed control at 31 g/ha (barnyardgrass [1]; Postemergence, 31 g ai/ha, scale 0 to 100 (0 no effect, 100 complete control), 13 to 15 days, read-out: Plant response rating, Barnyardgrass): 0% | pest or weed control at 62 g/ha (barnyardgrass [1]; Postemergence, 62 g ai/ha, scale 0 to 100 (0 no effect, 100 complete control), read-out: Plant response rating, Barnyardgrass): 5% | pest or weed control at 125 g/ha (ragweed; 125 g ai/ha, postemergence, read-out: Plant response rating (0 to 100), Ragweed): 80% | pest or weed control at 250 g/ha (ragweed; 250 g ai/ha, postemergence, read-out: Plant response rating (0 to 100), Ragweed): 95% | pest or weed control at 31 g/ha (ragweed; Postemergence, 31 g ai/ha, scale 0 to 100 (0 no effect, 100 complete control), 13 to 15 days, read-out: Plant response rating, Ragweed): 40% | pest or weed control at 62 g/ha (ragweed; Postemergence, 62 g ai/ha, scale 0 to 100 (0 no effect, 100 complete control), read-out: Plant response rating, Ragweed): 45% | Corn plant response rating (crop injury, 0 = no effect, 100 = complete kill) at 125 g/ha (corn [2]; [7]): 90% | plant injury at 500 g/ha (corn [2]; 500 g ai/ha, 0 to 100 scale, 0 no effect, 100 complete control, read-out: Plant response rating Corn): 90% | plant injury at 125 g/ha (wheat, winter [3]; 125 g ai/ha, postemergence, read-out: Plant response rating (0 to 100), Wheat): 5% | plant injury at 250 g/ha (wheat, winter [3]; 250 g ai/ha, postemergence, read-out: Plant response rating (0 to 100), Wheat): 5% | plant injury at 31 g/ha (wheat, winter [3]; Postemergence, 31 g ai/ha, scale 0 to 100 (0 no effect, 100 complete control), 13 to 15 days, read-out: Plant response rating, Wheat): 0% | plant injury at 62 g/ha (wheat, winter [3]; Postemergence, 62 g ai/ha, scale 0 to 100 (0 no effect, 100 complete control), read-out: Plant response rating, Wheat): 0% | pest or weed control at 125 g/ha (wild oat; 125 g ai/ha, postemergence, read-out: Plant response rating (0 to 100), Oat, Wild): 10% | pest or weed control at 250 g/ha (wild oat; 250 g ai/ha, postemergence, read-out: Plant response rating (0 to 100), Oat, Wild): 15% | pest or weed control at 31 g/ha (wild oat; Postemergence, 31 g ai/ha, scale 0 to 100 (0 no effect, 100 complete control), 13 to 15 days, read-out: Plant response rating, Oat, Wild): 0% | pest or weed control at 62 g/ha (wild oat; Postemergence, 62 g ai/ha, scale 0 to 100 (0 no effect, 100 complete control), read-out: Plant response rating, Oat, Wild): 5% | pest or weed control at 62 g/ha (velvetleaf; 62 g ai/ha, preemergence, scale 0 (no effect) to 100 (complete control), read-out: Velvetleaf plant response rating): 100% | pest or weed control at 125 g/ha (velvetleaf; 125 g ai/ha, preemergence, scale 0 (no effect) to 100 (complete control), read-out: Velvetleaf plant response rating): 100% | pest or weed control at 250 g/ha (velvetleaf; 250 g ai/ha, preemergence, scale 0 (no effect) to 100 (complete control), read-out: Velvetleaf plant response rating): 100% | pest or weed control at 31 g/ha (velvetleaf; Preemergence, 31 g ai/ha, scale 0 to 100, 0 no effect, 100 complete control, read-out: Plant response rating, Velvetleaf): 75% | pest or weed control at 62 g/ha (morningglory; 62 g ai/ha, preemergence, scale 0 (no effect) to 100 (complete control), read-out: Morningglory plant response rating): 95% | pest or weed control at 125 g/ha (morningglory; 125 g ai/ha, preemergence, scale 0 (no effect) to 100 (complete control), read-out: Morningglory plant response rating): 100% | pest or weed control at 250 g/ha (morningglory; 250 g ai/ha, preemergence, scale 0 (no effect) to 100 (complete control), read-out: Morningglory plant response rating): 100% | pest or weed control at 31 g/ha (morningglory; Preemergence, 31 g ai/ha, scale 0 to 100, 0 no effect, 100 complete control, read-out: Plant response rating, Morningglory): 55% | pest or weed control at 62 g/ha (Italian ryegrass; 62 g ai/ha, preemergence, scale 0 (no effect) to 100 (complete control), read-out: Ryegrass, Italian plant response rating): 55% | pest or weed control at 125 g/ha (Italian ryegrass; 125 g ai/ha, preemergence, scale 0 (no effect) to 100 (complete control), read-out: Ryegrass, Italian plant response rating): 80% | pest or weed control at 250 g/ha (Italian ryegrass; 250 g ai/ha, preemergence, scale 0 (no effect) to 100 (complete control), read-out: Ryegrass, Italian plant response rating): 90% | pest or weed control at 31 g/ha (Italian ryegrass; Preemergence, 31 g ai/ha, scale 0 to 100, 0 no effect, 100 complete control, read-out: Plant response rating, Ryegrass, Italian): 5% | pest or weed control at 125 g/ha (barnyardgrass [4]; 125 g ai/ha, 0 to 100 scale where 0 is no effect and 100 is complete control, read-out: Plant response rating, Barnyardgrass): 90% | pest or weed control at 500 g/ha (barnyardgrass [4]; 500 g ai/ha, 0 to 100 scale, 0 no effect, 100 complete control, read-out: Plant response rating Barnyardgrass): 100% | pest or weed control at 125 g/ha (yellow nutsedge; 125 g ai/ha, postemergence, read-out: Plant response rating (0 to 100), Nutsedge, Yellow): 5% | pest or weed control at 250 g/ha (yellow nutsedge; 250 g ai/ha, postemergence, read-out: Plant response rating (0 to 100), Nutsedge, Yellow): 30% | pest or weed control at 31 g/ha (yellow nutsedge; Postemergence, 31 g ai/ha, scale 0 to 100 (0 no effect, 100 complete control), 13 to 15 days, read-out: Plant response rating, Nutsedge, Yellow): 0% | pest or weed control at 62 g/ha (yellow nutsedge; Postemergence, 62 g ai/ha, scale 0 to 100 (0 no effect, 100 complete control), read-out: Plant response rating, Nutsedge, Yellow): 5% | plant injury at 62 g/ha (soybean; 62 g ai/ha, preemergence, scale 0 (no effect) to 100 (complete control), read-out: Soybean plant response rating): 85% | plant injury at 125 g/ha (soybean; 125 g ai/ha, preemergence, scale 0 (no effect) to 100 (complete control), read-out: Soybean plant response rating): 90% | plant injury at 250 g/ha (soybean; 250 g ai/ha, preemergence, scale 0 (no effect) to 100 (complete control), read-out: Soybean plant response rating): 90% | plant injury at 31 g/ha (soybean; Preemergence, 31 g ai/ha, scale 0 to 100, 0 no effect, 100 complete control, read-out: Plant response rating, Soybean): 5% | Corn plant response rating (crop injury, 0 = no effect, 100 = complete kill) at 125 g/ha (corn [5]; [7]): 20% | plant injury at 500 g/ha (corn [5]; 500 g ai/ha, 0 to 100 scale, 0 no effect, 100 complete control, approx. 10 days, read-out: Corn plant response rating): 80% | plant injury at 62 g/ha (wheat, winter [6]; 62 g ai/ha, preemergence, scale 0 (no effect) to 100 (complete control), read-out: Wheat plant response rating): 0% | plant injury at 125 g/ha (wheat, winter [6]; 125 g ai/ha, preemergence, scale 0 (no effect) to 100 (complete control), read-out: Wheat plant response rating): 30% | plant injury at 250 g/ha (wheat, winter [6]; 250 g ai/ha, preemergence, scale 0 (no effect) to 100 (complete control), read-out: Wheat plant response rating): 45% | plant injury at 31 g/ha (wheat, winter [6]; Preemergence, 31 g ai/ha, scale 0 to 100, 0 no effect, 100 complete control, read-out: Plant response rating, Wheat): 0% | pest or weed control at 125 g/ha (waterhemp; 125 g ai/ha, postemergence, read-out: Plant response rating (0 to 100), Waterhemp): 75% | pest or weed control at 250 g/ha (waterhemp; 250 g ai/ha, postemergence, read-out: Plant response rating (0 to 100), Waterhemp): 95% | pest or weed control at 31 g/ha (waterhemp; Postemergence, 31 g ai/ha, scale 0 to 100 (0 no effect, 100 complete control), 13 to 15 days, read-out: Plant response rating, Waterhemp): 70% | pest or weed control at 62 g/ha (waterhemp; Postemergence, 62 g ai/ha, scale 0 to 100 (0 no effect, 100 complete control), read-out: Plant response rating, Waterhemp): 70%
